From article PMC7915666, “Antitrypanosomal and Antileishmanial Activity of Chalcones and Flavanones from Polygonum salicifolium” (Pathogens, 2021)
Converted amounts (≈) assume the structure as drawn. Like-named read-outs stand apart in the source and are kept apart here.

Key:
[1] = test system: T. b. brucei B48; assay: Alamar Blue (resazurin) assay, multi-drug resistant T. b. brucei B48; assay type: cell-based; conditions: Trypanosoma brucei, read-out: T. b. brucei EC50, B48
Description: (§1) The four compounds were tested for activity against the following three kinetoplastid pathogens: Trypanosoma brucei brucei, Trypanosoma congolense, and Leishmania mexicana. For the two Trypanosoma species, the compounds were tested in parallel against strains that were resistant to the most common trypanocides. T. b. brucei B48 is highly resistant to the entire classes of diamidines and melaminophenyl arsenicals, and T. congolense DA-Res was rendered resistant to diminazene aceturate by means of in vitro exposure to the drug. […] For the drug-resistant trypanosome strains, highly significant resistance to diamidines was confirmed, but there was no cross-resistance with the chalcones and flavanones. […] While this dataset of two chalcones is self-evidently insufficient for a structure–activity relationship (SAR) analysis, it is clear that the position of the hydroxy and methoxy groups on ring A (Figure 1) influenced the trypanocidal activity without increasing the toxicity.

[2] = test system: T. b. brucei 427-WT; assay: Alamar Blue (resazurin) assay, T. b. brucei Lister 427 wild-type bloodstream forms; conditions: for EC50: Trypanosoma brucei; for activity against Trypanosoma species (in words): Trypanosoma species (T. b. brucei and T. congolense)
[3] = test system: T. congolense DA-Res; assay type: cell-based, Trypanosoma congolense; conditions: for EC50: Trypanosoma congolense, read-out: T. congolense EC50, DA-Res
Description: as §1

[4] = Drug toxicity assay in human foreskin fibroblast (HFF) cells, resazurin; assay type: cell-based; conditions: HFF (human foreskin fibroblast) cells; human foreskin fibroblasts; highest concentration tested 100 µg/mL; mean ± SEM, n>=3
[5] = test system: HFF cells; assay: as above; assay type: cell-based; conditions: EC50 (HFF)/EC50(427-WT)
[6] = test system: T. congolense IL3000-WT; assay: Alamar Blue (resazurin) assay, T. congolense IL3000 wild-type bloodstream forms
[7] = 72 h, read-out: T. b. brucei EC50, 427-WT, bloodstream forms, 48 h + 24 h resazurin, mean ± SEM, n>=3

Structure (SMILES) | EC50 [1] | EC50 [2, 7] | activity against Trypanosoma species (in words) [2] | EC50 [3] | EC50 at 54 h [4] | SI (Tbb), selectivity index = EC50(HFF)/EC50(Tbb) [5] | resistance of clone 6C3 versus IL3000 ([3]; line adapted in vitro to diminazene aceturate) | EC50 ([2]; read-out: EC50 against Trypanosoma brucei brucei, standard resazurin-based assay) | activity against T. congolense (in words) [6] | EC50 ([6]; Trypanosoma congolense, read-out: EC50 against T. congolense) | fold less activity than compound 1 against T. b. brucei ([2]; relative to compound 1) | fold less activity than compound 1 against T. congolense ([6]; relative to compound 1)
COc1cc(OC)c2c(c1)OC(c1ccccc1)CC2=O (stereo not drawn) [Compound 3, 5,7-dimethoxyflavanone] | 30.3 ± 1.1 µM | 30.1 ± 0.95 µM | moderate activity | 106 ± 15 µM | > 350 µM | >11.7 |  |  |  |  |  | 
COc1cc(O)c(OC)c2c1C(=O)CC(c1ccccc1)O2 (stereo not drawn) [Compound 4, 5,8-dimethoxy-7-hydroxyflavanone] | 51.9 ± 1.6 µM | 55.3 ± 1.6 µM | moderate activity | 48 ± 6.2 µM | > 330 µM | >6.0 |  |  |  |  |  | 
N=C(N)c1ccc(/N=N/Nc2ccc(C(=N)N)cc2)cc1 [Diminazene, diminazene aceturate, reference compound] | 2.4 ± 0.36 µM | 0.15 ± 0.01 µM |  | 1.43 ± 0.03 µM |  |  | ~ 10 fold |  |  |  |  | 
COc1cc(O)c(C(=O)/C=C/c2ccccc2)c(OC)c1 [Compound 1, 2′,4′-dimethoxy-6′-hydroxychalcone] | 1.8 µM | ~2 µM |  | 8.8 ± 0.28 µM | > 350 µM | >172 |  | 0.58 µg/mL | moderate activity | 2.5 µg/mL (≈ 8.79 µM) |  | 
N=C(N)c1ccc(OCCCCCOc2ccc(C(=N)N)cc2)cc1 [Pentamidine, reference compound] | 0.72 ± 0.03 µM | 0.0034 ± 0.0004 µM |  |  |  |  |  |  |  |  |  | 
COc1cc(O)c(OC)c(O)c1C(=O)/C=C/c1ccccc1 [Compound 2, 2′,5′-dimethoxy-4′,6′-dihydroxychalcone] | 13.9 ± 0.6 µM | 14.6 ± 0.8 µM |  | 28.6 ± 1.4 µM | > 330 µM | >22.8 |  |  |  |  | about 8 fold | ~4 fold
